In article PMC11240257, “Engineered Methionine Adenosyltransferase Cascades for Metabolic Labeling of Individual DNA Methylomes in Live Cells” (Journal of the American Chemical Society, 2024):
Where two headings read alike, the source gives them in different places.

Tests used:
Experiment in all cases: HPLC-MS/MS quantitation of accumulated cofactor, steady state
Format in all cases: biochemical
Conditions in all cases: co-substrate ATP
mouse MAT2A [1] = target: T1, mouse MAT2A (Mus musculus, UniProt Q3THS6, S114A/I117A)
T1 construct: recombinant, produced in vitro from bacterial cells; monogenic multimer without MAT2B
T1 sequence (Q3THS6 whole entry S114A/I117A): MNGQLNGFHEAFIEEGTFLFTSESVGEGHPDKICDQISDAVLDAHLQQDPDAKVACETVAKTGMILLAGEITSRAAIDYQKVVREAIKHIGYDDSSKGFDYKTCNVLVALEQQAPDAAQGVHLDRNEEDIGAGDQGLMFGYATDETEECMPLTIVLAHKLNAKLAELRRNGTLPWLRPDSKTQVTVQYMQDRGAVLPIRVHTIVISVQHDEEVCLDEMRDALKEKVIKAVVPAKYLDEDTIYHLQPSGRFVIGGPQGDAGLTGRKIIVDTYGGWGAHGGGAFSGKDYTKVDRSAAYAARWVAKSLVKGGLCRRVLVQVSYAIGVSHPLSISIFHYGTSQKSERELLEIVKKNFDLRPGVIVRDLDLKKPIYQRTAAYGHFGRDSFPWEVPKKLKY
Text: (§1) HPLC-MS/MS quantitation of accumulated cofactor, steady state on mouse MAT2A

mouse MAT2A [2] = target: T2, mouse MAT2A (Mus musculus, UniProt Q3THS6, I117A)
T2 construct: recombinant, produced in vitro from bacterial cells; monogenic multimer without MAT2B
T2 sequence (Q3THS6 whole entry I117A): as the sequence (Q3THS6 whole entry S114A/I117A) above, with A114S counted along it
Text: as §1

mouse MAT2A [3] = target: T3, mouse MAT2A (Mus musculus, UniProt Q3THS6, Q113N/I117A)
T3 construct: recombinant, produced in vitro from bacterial cells; monogenic multimer without MAT2B
T3 sequence (Q3THS6 whole entry Q113N/I117A): as the sequence (Q3THS6 whole entry S114A/I117A) above, with Q113N, A114S counted along it
Text: as §1

mouse MAT2A [4] = target: T4, mouse MAT2A (Mus musculus, UniProt Q3THS6)
T4 construct: recombinant, produced in vitro from bacterial cells; monogenic multimer without MAT2B
T4 sequence (Q3THS6 whole entry): as the sequence (Q3THS6 whole entry S114A/I117A) above, with A114S, A117I counted along it
Text: as §1

| SMILES | Km (mouse MAT2A [1]; read-out: Km /) | Km (mouse MAT2A [2]; read-out: Km /) | Km (mouse MAT2A [3]; read-out: Km /) | Km (mouse MAT2A [4]; read-out: Km /) | Km (mouse MAT2A [1]; read-out: Km / mM) | Km (mouse MAT2A [2]; read-out: Km / mM) | Km (mouse MAT2A [3]; read-out: Km / mM) | Km (mouse MAT2A [4]; read-out: Km / mM) |
| --- | --- | --- | --- | --- | --- | --- | --- | --- |
| CSCC[C@H](N)C(=O)O [Met, L-methionine] | 1.4 ± 0.41 mM | 0.645 ± 0.023 mM | 1.4 ± 0.56 mM | 0.02 ± 0.003 mM |  |  |  |  |
| [N-]=[N+]=NCCCC#CCSCC[C@H](N)C(=O)O [N3-Met, S-(6-azidohex-2-yn-1-yl)-L-homocysteine] |  |  |  |  | 1.52 ± 0.043 mM | 0.92 ± 0.1 mM | 1.44 ± 0.27 mM | 1.03 ± 0.23 mM |
